Measurements taken from patent US11172676B2, “Antibacterial resin composition” (TOYO SEIKAN GROUP HOLDINGS, LTD., priority 2011, dated 2021).

Conditions: JIS Z 7260-107

With O=C1NS(=O)(=O)c2ccccc21.[Ag] [saccharin silver] the “silver concentrations eluted out in 1-octanol or in water (hydrophilic and oleophilic property)” value was “hydrophilic property and oleophilic property which are both superior to those of silver stearate, phthalazone silver or benzotriazole silver”.
